Data on six compounds can be found in ChEMBL document CHEMBL1150976, “The selectivity of protein kinase inhibitors: a further update” (Biochem J, 2007).

Assay [1] has as its target Mitogen-activated protein kinase 9 (Homo sapiens, UniProt P45984). Briefly: Percentage JNK2 activity remaining in the presence of 0.1uM inhibitor.
The target in assay [2] is Tyrosine-protein kinase CSK (Homo sapiens, UniProt P41240). In words: Percentage CSK activity remaining in the presence of 0.1uM inhibitor.
The target of assay [3] is Ribosomal protein S6 kinase alpha-1 (Homo sapiens) (UniProt Q15418). Briefly: Percentage RSK1 activity remaining in the presence of 0.1uM inhibitor.
The target of assay [4] is Myosin light chain kinase, smooth muscle (Homo sapiens, UniProt Q15746). Briefly: Percentage SmMLCK activity remaining in the presence of 0.1uM inhibitor.
In assay [5] the target is T1, Dual specificity tyrosine-phosphorylation-regulated kinase 2 (Homo sapiens) (UniProt Q92630).
T1 sequence (whole entry): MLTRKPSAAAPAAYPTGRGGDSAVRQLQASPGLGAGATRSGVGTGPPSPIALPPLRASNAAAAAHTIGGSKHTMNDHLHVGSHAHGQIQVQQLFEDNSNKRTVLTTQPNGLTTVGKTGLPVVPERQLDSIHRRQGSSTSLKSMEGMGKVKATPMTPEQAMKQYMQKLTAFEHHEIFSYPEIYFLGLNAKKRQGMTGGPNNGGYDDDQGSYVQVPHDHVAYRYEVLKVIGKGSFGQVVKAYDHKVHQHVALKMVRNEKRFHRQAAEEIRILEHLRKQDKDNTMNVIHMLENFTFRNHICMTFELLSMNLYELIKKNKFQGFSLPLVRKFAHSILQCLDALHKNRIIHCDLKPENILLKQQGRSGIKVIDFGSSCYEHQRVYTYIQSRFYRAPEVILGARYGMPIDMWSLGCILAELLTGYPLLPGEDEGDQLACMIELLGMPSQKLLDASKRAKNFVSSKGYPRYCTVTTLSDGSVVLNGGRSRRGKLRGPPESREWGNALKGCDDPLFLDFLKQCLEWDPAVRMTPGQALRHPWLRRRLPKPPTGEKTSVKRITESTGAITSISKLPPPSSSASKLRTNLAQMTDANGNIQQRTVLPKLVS
Briefly: Percentage DYRK2 activity remaining in the presence of 0.1uM inhibitor.

The target in assay [6] is Serine/threonine-protein kinase PLK1 (Homo sapiens, UniProt P53350). Briefly: Percentage PLK1 activity remaining in the presence of 0.1uM inhibitor.
Assay [7] is filed under the species Homo sapiens. Briefly: Percentage PHK activity remaining in the presence of 0.1uM inhibitor.
Assay [8] concerns the target RAC-alpha serine/threonine-protein kinase (Homo sapiens) (UniProt P31749). In words: Percentage PKBalpha activity remaining in the presence of 0.1uM inhibitor.
The target of assay [9] is Mitogen-activated protein kinase 3 (Homo sapiens) (UniProt P27361). In words: Percentage ERK1 activity remaining in the presence of 0.1uM inhibitor.
In assay [10] the target is Serine/threonine-protein kinase pim-3 (Homo sapiens, UniProt Q86V86). In words: Percentage PIM3 activity remaining in the presence of 0.1uM inhibitor.
Assay [11] concerns the target Homeodomain-interacting protein kinase 2 (Homo sapiens) (UniProt Q9H2X6). In words: Percentage HIPK2 activity remaining in the presence of 0.1uM inhibitor.
Assay [12] concerns the target Serine/threonine-protein kinase Chk2 (Homo sapiens) (UniProt O96017). Briefly: Percentage CHK2 activity remaining in the presence of 0.1uM inhibitor.
The target in assay [13] is Protein kinase C alpha type (Homo sapiens) (UniProt P17252). Briefly: Percentage PKCalpha activity remaining in the presence of 0.1uM inhibitor.
Assay [14] addresses Aurora kinase B (Homo sapiens, UniProt Q96GD4). Briefly: Percentage Aurora B activity remaining in the presence of 0.1uM inhibitor.
The target of assay [15] is T2, Serine/threonine-protein kinase Chk1 (Homo sapiens) (UniProt O14757).
T2 sequence (whole entry): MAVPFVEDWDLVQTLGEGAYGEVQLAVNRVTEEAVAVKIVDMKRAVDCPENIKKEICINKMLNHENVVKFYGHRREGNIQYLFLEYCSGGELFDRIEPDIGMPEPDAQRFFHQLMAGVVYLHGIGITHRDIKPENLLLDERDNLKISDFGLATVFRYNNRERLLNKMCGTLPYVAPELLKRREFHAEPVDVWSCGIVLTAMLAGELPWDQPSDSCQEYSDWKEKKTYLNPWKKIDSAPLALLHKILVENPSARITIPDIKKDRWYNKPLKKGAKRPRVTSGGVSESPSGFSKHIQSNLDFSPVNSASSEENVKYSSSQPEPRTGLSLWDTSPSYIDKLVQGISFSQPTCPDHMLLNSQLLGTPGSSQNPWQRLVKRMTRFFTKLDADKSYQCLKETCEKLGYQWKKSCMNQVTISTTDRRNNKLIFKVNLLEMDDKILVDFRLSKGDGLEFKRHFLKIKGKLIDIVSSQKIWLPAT
Briefly: Percentage CHK1 activity remaining in the presence of 0.1uM inhibitor.

The target in assay [16] is T3, MAP kinase-activated protein kinase 5 (Homo sapiens) (UniProt Q8IW41).
T3 sequence (whole entry): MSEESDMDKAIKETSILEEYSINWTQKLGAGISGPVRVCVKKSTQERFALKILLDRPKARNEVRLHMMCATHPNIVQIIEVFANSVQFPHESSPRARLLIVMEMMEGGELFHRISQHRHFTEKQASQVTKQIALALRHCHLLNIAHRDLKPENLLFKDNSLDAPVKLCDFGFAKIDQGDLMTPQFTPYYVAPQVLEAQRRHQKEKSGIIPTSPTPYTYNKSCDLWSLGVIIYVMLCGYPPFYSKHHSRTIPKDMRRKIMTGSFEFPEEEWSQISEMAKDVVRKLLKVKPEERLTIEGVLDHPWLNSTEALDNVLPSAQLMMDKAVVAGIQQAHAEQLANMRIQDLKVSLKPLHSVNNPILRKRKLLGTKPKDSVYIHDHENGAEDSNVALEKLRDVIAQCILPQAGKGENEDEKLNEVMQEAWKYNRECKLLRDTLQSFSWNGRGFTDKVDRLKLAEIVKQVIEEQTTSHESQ
Briefly: Percentage PRAK activity remaining in the presence of 0.1uM inhibitor.

Assay [17] has as its target Casein kinase II (Homo sapiens) (UniProt P67870+P68400+P19784). In words: Percentage CK2 activity remaining in the presence of 0.1uM inhibitor. In kind it is protein-complex assay.
Assay [18] concerns the target Mitogen-activated protein kinase 1 (Homo sapiens) (UniProt P28482). In words: Percentage ERK2 activity remaining in the presence of 0.1uM inhibitor.
Assay [19] addresses Serine/threonine-protein kinase Nek7 (Homo sapiens) (UniProt Q8TDX7). In words: Percentage NEK7 activity remaining in the presence of 0.1uM inhibitor.
Assay [20] has as its target MAP kinase-activated protein kinase 3 (Homo sapiens) (UniProt Q16644). In words: Percentage MAPKAPK3 activity remaining in the presence of 0.1uM inhibitor.
For assay [21], the target named is MAP kinase-interacting serine/threonine-protein kinase 1 (Homo sapiens) (UniProt Q9BUB5). In words: Percentage MNK1 activity remaining in the presence of 0.1uM inhibitor.
Assay [22] has as its target Cyclin-dependent kinase 2/cyclin A (Homo sapiens) (UniProt P24941+P20248+P78396). In words: Percentage CDK2-cyclinA activity remaining in the presence of 0.1uM inhibitor. In kind it is protein-complex assay.

Sequence of Aurora kinase B (Q96GD4 whole entry): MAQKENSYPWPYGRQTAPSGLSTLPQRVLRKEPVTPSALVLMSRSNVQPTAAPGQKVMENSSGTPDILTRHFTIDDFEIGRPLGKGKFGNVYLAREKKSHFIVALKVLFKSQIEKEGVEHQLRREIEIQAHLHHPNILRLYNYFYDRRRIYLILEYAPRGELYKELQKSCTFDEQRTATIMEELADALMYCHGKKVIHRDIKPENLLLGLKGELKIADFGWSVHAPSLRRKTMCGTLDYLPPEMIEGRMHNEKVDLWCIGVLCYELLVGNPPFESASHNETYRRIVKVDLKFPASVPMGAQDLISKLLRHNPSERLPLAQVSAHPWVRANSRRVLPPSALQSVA
Sequence of Ribosomal protein S6 kinase alpha-1 (Homo sapiens) (Q15418 whole entry): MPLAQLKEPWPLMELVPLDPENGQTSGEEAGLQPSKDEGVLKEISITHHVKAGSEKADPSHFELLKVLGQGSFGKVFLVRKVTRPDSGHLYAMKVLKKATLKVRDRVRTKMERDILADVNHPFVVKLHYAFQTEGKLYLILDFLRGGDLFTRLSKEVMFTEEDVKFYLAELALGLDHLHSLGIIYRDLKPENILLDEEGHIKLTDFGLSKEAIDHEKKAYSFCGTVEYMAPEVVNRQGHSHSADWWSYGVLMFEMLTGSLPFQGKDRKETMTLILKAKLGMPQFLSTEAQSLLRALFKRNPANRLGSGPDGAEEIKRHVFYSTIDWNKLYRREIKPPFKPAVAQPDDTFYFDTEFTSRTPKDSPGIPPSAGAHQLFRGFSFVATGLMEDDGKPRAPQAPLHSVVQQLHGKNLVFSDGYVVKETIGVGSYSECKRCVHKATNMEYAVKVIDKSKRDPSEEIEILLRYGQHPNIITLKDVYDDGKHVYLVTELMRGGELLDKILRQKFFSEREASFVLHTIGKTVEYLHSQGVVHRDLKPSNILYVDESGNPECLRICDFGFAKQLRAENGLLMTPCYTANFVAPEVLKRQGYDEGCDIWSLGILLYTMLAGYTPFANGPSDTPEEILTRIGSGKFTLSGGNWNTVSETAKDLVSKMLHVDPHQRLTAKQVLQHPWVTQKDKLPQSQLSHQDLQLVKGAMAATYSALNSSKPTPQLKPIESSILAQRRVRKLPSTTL
Sequence of Tyrosine-protein kinase CSK (P41240 2-450 limits assumed): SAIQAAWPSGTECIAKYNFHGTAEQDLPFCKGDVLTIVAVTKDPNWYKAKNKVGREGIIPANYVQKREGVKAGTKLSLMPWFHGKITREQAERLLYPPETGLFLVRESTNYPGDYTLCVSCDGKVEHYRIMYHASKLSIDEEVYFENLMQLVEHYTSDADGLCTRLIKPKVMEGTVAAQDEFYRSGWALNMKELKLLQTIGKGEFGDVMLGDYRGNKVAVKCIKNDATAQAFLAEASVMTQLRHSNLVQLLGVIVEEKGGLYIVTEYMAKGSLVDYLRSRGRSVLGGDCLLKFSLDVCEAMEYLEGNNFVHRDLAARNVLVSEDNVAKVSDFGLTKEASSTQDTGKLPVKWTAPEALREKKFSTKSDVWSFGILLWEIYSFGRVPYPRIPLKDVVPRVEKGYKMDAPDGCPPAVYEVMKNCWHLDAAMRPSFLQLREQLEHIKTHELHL
Sequence of Mitogen-activated protein kinase 9 (P45984 whole entry, looked up): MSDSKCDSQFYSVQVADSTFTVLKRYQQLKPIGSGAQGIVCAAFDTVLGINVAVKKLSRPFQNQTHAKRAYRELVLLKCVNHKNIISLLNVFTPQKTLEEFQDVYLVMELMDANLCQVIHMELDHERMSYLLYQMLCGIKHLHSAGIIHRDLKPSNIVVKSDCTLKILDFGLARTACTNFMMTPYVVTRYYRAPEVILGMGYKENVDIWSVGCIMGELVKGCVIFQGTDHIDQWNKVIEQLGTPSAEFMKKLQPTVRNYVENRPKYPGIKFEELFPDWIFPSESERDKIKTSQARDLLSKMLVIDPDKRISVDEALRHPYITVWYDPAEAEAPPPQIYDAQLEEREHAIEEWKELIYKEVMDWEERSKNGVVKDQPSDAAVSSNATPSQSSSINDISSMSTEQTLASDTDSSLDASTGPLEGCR
Sequence of MAP kinase-activated protein kinase 3 (Homo sapiens) (Q16644 whole entry, looked up): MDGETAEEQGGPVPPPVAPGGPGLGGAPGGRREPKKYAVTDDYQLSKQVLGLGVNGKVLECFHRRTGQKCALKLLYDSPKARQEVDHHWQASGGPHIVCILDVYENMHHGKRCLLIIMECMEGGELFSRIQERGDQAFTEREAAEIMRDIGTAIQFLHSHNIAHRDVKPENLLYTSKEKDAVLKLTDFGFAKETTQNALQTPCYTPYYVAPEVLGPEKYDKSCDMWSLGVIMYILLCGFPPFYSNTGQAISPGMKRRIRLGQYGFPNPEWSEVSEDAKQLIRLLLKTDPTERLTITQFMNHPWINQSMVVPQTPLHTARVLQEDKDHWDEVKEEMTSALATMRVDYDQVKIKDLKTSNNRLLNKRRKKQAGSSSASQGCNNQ
Sequence of RAC-alpha serine/threonine-protein kinase (Homo sapiens) (P31749 whole entry): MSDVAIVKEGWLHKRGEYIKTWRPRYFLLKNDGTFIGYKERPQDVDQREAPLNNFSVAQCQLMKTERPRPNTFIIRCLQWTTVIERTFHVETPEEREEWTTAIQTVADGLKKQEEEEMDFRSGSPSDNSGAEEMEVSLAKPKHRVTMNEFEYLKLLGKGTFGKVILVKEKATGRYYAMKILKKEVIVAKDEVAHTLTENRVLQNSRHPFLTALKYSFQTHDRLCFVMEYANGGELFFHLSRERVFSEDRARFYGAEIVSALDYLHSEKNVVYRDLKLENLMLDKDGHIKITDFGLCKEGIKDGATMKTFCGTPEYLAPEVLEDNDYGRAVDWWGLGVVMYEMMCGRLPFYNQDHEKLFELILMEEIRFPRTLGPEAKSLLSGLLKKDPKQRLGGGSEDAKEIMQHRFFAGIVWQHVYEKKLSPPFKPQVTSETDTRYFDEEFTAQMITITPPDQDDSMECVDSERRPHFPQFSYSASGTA
Sequence of Serine/threonine-protein kinase Chk2 (Homo sapiens) (O96017 whole entry): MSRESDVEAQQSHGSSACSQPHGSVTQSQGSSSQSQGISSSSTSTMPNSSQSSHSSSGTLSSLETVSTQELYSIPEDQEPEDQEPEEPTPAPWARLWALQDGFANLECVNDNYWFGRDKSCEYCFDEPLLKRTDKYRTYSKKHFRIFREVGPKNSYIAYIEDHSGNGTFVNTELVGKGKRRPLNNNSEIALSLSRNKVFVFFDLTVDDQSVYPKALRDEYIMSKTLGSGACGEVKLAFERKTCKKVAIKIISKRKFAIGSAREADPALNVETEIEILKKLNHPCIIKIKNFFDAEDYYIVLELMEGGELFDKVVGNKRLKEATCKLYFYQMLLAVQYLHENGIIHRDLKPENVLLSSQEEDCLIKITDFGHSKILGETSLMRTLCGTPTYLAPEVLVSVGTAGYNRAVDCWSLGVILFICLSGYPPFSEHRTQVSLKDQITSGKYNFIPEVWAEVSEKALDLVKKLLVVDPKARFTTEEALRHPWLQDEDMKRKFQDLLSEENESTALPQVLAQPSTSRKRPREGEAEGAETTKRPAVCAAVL
Sequence of Homeodomain-interacting protein kinase 2 (Homo sapiens) (Q9H2X6 whole entry, looked up): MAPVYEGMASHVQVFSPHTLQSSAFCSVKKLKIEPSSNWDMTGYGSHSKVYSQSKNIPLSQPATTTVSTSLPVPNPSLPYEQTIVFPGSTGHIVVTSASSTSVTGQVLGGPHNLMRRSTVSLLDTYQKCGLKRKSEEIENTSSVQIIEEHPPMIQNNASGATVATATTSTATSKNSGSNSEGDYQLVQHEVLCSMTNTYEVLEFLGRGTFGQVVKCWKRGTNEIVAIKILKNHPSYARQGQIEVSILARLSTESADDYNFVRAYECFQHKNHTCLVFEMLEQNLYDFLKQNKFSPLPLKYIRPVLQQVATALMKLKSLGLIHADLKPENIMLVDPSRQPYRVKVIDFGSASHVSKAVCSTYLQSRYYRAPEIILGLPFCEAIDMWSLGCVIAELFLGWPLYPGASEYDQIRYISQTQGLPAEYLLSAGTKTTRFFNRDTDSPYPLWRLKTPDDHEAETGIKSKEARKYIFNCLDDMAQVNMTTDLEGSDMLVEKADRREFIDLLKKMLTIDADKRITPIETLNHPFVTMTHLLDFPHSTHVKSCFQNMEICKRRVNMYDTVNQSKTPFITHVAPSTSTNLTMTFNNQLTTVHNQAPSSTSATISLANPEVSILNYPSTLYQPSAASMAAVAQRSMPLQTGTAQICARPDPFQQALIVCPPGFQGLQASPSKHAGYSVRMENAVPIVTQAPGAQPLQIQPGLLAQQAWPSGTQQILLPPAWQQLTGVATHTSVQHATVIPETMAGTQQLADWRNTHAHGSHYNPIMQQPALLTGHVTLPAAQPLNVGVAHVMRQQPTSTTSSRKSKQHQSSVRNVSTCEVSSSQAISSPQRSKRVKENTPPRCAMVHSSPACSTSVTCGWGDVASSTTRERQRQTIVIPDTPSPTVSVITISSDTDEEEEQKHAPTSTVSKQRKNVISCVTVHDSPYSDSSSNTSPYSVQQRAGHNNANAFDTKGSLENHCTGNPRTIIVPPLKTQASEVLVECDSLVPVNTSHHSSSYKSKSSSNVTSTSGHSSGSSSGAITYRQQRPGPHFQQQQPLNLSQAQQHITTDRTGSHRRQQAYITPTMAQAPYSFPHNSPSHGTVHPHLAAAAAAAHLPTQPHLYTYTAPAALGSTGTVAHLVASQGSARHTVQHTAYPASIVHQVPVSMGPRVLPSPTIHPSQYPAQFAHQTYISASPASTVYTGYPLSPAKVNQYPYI
Sequence of Mitogen-activated protein kinase 3 (Homo sapiens) (P27361 whole entry): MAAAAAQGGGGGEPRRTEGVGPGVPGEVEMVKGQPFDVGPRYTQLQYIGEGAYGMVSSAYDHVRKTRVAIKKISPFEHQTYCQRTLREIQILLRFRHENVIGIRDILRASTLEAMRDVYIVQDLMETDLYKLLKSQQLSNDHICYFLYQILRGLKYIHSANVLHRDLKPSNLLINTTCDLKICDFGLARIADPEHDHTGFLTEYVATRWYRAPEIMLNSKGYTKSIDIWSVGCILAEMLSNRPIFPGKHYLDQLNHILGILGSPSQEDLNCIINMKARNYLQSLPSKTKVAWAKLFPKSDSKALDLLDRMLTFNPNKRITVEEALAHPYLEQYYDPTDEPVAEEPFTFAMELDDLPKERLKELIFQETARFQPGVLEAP

Consider `CC(C)CCN1c2nc(Nc3cc(F)c(O)c(F)c3)ncc2N(C)C(=O)C1C` (centres undefined), for which the Activity in [1] is 115%; in assay [2], 99%; in [3] (filed as antagonist) it was 1%; in assay [4], 107%; in assay [5] it was 91%; in [6] (filed as antagonist) it was 5%. In addition, the Activity in assay [7] was determined as 114%; in assay [8], 98%; in [9] it was 115%; in assay [10], 65%; in assay [11] it was 103%; in assay [12], 96%. For the same compound, the Activity was 90% in [13]; 22% in [14] (filed as antagonist); 73% in assay [15]; 89% in [16]; 97% in assay [17]; 85% in assay [18]. Moreover, the Activity in assay [19] is 108%; in assay [20], 108%; in [21], 87%; in assay [22], 84%.
Turning to `CC(C)[C@H](CO)Nc1nc(Nc2cccc(Cl)c2)c2ncn(C(C)C)c2n1` [PURVALANOLA], the Activity worked out at 96% in assay [1]; 82% in assay [2]; 74% in [3]; 86% in [4]; 91% in assay [5]; 81% in assay [6]. The Activity in assay [7] was 85%; in assay [8] it was 95%; in assay [9] it was 95%; in assay [10] it was 91%; in [12], 94%; in [13] it was 77%. Also, the Activity in [14] stood at 89%; in assay [15], 95%; in assay [16], 91%; in assay [17] it was 99%; in [18], 79%; in assay [19] it was 105%. Also, the Activity in assay [20] is 88%; in assay [21], 92%; in [22] (filed as antagonist) it was 9%.
Turning to `Cn1cc(C2=C(c3cn(CCCSC(=N)N)c4ccccc34)C(=O)NC2=O)c2ccccc21`, the Activity in [1] is 92%; in assay [2], 77%; in [3] (filed as antagonist), 11%; in assay [4], 63%; in assay [5] it was 90%; in assay [6], 82%. Moreover, the Activity in assay [7] (filed as antagonist) was 46%; in assay [8] it was 52%; in assay [9], 88%; in [10] (filed as antagonist), 16%; in assay [11], 88%; in [12] it was 99%. For the same compound, the Activity is 3% in assay [13] (filed as antagonist); 80% in assay [14]; 59% in assay [15]; 80% in assay [16]; 99% in [17]; 92% in [18]. Further, the Activity in assay [19] was 101%; in assay [20], 90%; in [21] it was 95%; in assay [22] (filed as antagonist), 3%.
As for `Cc1n[nH]c2ccc(-c3cncc(OC[C@@H](N)Cc4c[nH]c5ccccc45)c3)cc12`, the Activity in assay [1] was 78%; in [2] it was 93%; in [3] (filed as antagonist) it was 32%; in assay [4] (filed as antagonist) it was 27%; in [5] (filed as antagonist), 26%; in [6], 80%. Moreover, the Activity in assay [7] was 54%; in assay [8] (filed as antagonist), 3%; in assay [9], 59%; in assay [10] (filed as antagonist) it was 13%; in [11] (filed as antagonist), 24%; in assay [12], 95%. The Activity in assay [13] (filed as antagonist) is 29%; in assay [14] it was 80%; in [15], 99%; in [16], 107%; in assay [17] it was 90%; in assay [18], 64%. Besides, the Activity in assay [19] was found to be 84%; in assay [20], 96%; in assay [21], 109%.
Take `O=C(NCCCNc1nc(Nc2cccc(NC(=O)N3CCCC3)c2)ncc1I)c1cccs1`: the Activity in assay [1] is 70%; in assay [2], 101%; in assay [3], 55%; in assay [4], 95%; in [5], 76%; in assay [6], 92%. In addition, the Activity was 62% in assay [7]; 90% in [8]; 66% in assay [9]; 63% in [10]; 101% in assay [11]; 46% in assay [12] (filed as antagonist). Further, the Activity in assay [13] is 74%; in assay [14] (filed as antagonist), 3%; in [15] (filed as antagonist), 46%; in assay [16], 83%; in assay [17] it was 93%; in assay [18], 71%. Further, the Activity in [19] was 99%; in assay [20] it was 102%; in [21] (filed as antagonist), 37%; in assay [22] (filed as antagonist), 10%.
In the case of `CN(C)C[C@@H]1CCn2cc(c3ccccc32)C2=C(C(=O)NC2=O)c2cn(c3ccccc23)CCO1`, the Activity is 99% in assay [1]; 78% in assay [2]; 10% in assay [3] (filed as antagonist); 66% in assay [4]; 85% in assay [5]; 85% in [6]. In addition, the Activity in assay [7] (filed as antagonist) is 49%; in [8] it was 90%; in assay [9], 84%; in assay [10] (filed as antagonist), 5%; in assay [11], 63%; in assay [12], 92%. The Activity in [14] stood at 65%; in assay [15], 71%; in assay [16] it was 82%; in [17] it was 89%; in [18], 94%; in assay [19], 104%. For the same compound, the Activity in assay [20] is 90%; in assay [21], 94%; in assay [22] it was 68%.
